Literature values in patent US20240009433A1, “METHODS FOR CONTINUOUS ORAL DRUG DELIVERY” (SynAgile Corporation, priority 2020, published 2024).

Key:
[1] = in vivo
[2] = in vivo; remark: listed apart in the source
[3] = in vivo; remark: listed apart in the source

SMILES | plasma half-life [1] [h] | crossing of the blood-brain barrier [2] | hepatotoxicity [3]
CCN(CC)C(=O)/C(C#N)=C/c1cc(O)c(O)c([N+](=O)[O-])c1 [Entacapone] | 0.4 to 0.7 | does not cross the blood-brain barrier | 
Cc1ccc(C(=O)c2cc(O)c(O)c([N+](=O)[O-])c2)cc1 [Tolcapone] | 2 to 3 | crosses the barrier | use is limited by its hepatotoxicity
